Laboratory results as given in the NIST ThermoML archive (doi:10.1016/j.jct.2018.12.032).
± gives the expanded uncertainty stated by the source.

Columns and labels:
[1] = for vapor or sublimation pressure: Transpiration method
[2] = Molar enthalpy of transition or fusion; details: Crystal; DSC

c1ccc(-n2c3ccccc3c3ccccc32)cc1 [N-phenylcarbazole]
[1]
Details	Glass transition temperature [°C]	Normal melting temperature [°C]	vapor or sublimation pressure [kPa]
330.1 K, Crystal	–	–	9.2e-06 ± 1e-05
336.4 K, Crystal	–	–	2.01e-05 ± 1.1e-05
343.5 K, Crystal	–	–	4.67e-05 ± 1.3e-05
349.2 K, Crystal	–	–	9.26e-05 ± 1.5e-05
350 K, Metastable liquid	–	–	0.000128 ± 1.7e-05
356.1 K, Crystal	–	–	0.00019 ± 2.1e-05
356.1 K, Metastable liquid	–	–	0.000224 ± 2.4e-05
362.8 K, Crystal	–	–	0.0003947 ± 3.4e-05
362.8 K, Metastable liquid	–	–	0.000395 ± 3.4e-05
368.5 K, Metastable liquid	–	–	0.000657 ± 4.9e-05
372.4 K, Liquid	–	–	0.000913 ± 6.7e-05
377.3 K, Liquid	–	–	0.001342 ± 9.3e-05
Crystal, DTA	–	94.8 ± 0.5	–
Glass, DSC	-18.3 ± 0.8	–	–

Details	Molar enthalpy of transition or fusion [kcal/mol]
[2]	4.64 ± 0.12
